These results are taken from paper PMC2924314, “Peptides derived from the HIV-1 integrase promote HIV-1 infection and multi-integration of viral cDNA in LEDGF/p75-knockdown cells” (Virology Journal, 2010).

Where no end group is shown, it is not given here.

One data set has as its target T1, LEDGF/p75 (Homo sapiens, UniProt O75475).
T1 construct: histidine tag; made in house
The data set can be described thus: ELISA binding of peptides to LEDGF/p75. To be noted: apparent Kd according to ELISA using LEDGF and BSA alone as control; peptide-coated plates, room temperature, OD 490 nm, duplicate. How it is done: Expression and purification of the histidine-tagged IN and LEDGF/p75 expression vectors, were a generous gift from Prof. Engelman, Dana-Farber Cancer Institute and Division of AIDS, Harvard Medical School, Boston, MA, USA), were performed essentially as described previously.
Protein-peptide, protein-protein and protein-DNA binding was estimated using an ELISA-based binding assay exactly as described previously. Briefly, Maxisorp plates (Nunc) were incubated at room temperature for 2 h with […] of 10 μg/ml synthetic peptide/recombinant proteins in carbonate buffer. After incubation, the solution was removed, the plates were washed three times with PBS, and 200 μl of 10% BSA (Sigma) in PBS (w/v) was added and the plates were further incubated for 2 h at room temperature. After rewashing with PBS, the tested BSA-biotinilated (Bb) peptide or protein (alone or biotinilated) was added for a further 1-h incubation at room temperature. Following three washes with PBS, the concentration of bound molecules was estimated following the addition of streptavidin-horseradish peroxidase (HRP) conjugate (Sigma), as described previously. The enzymatic activity of HRP was estimated by monitoring the product's optical density (OD) at 490 nm using an ELISA plate reader (Tecan Sunrise, Männedorf, Switzerland). Each measurement was performed in duplicate. […]
(In an ELISA, binding on a coated surface is turned into a signal by an enzyme label.)

For data set [1] the following is noted: ref [25]; cited from earlier work. The source says: Following integration of the viral cDNA, several viral proteins are expressed, among them Rev. After its nuclear import the Rev protein is involved in nuclear export of unspliced and partially spliced viral RNA molecules. Thus, similar to IN, the presence the Rev protein is essential for completion of the HIV-1 life cycle. In addition to its expression from integrated viral DNA, Rev can be expressed from unintegrated DNA molecules and thus appear at an early stage in virus-infected cells. Recently, we have shown that early expressed Rev can interact with IN in ...

T1 sequence (O75475 whole entry): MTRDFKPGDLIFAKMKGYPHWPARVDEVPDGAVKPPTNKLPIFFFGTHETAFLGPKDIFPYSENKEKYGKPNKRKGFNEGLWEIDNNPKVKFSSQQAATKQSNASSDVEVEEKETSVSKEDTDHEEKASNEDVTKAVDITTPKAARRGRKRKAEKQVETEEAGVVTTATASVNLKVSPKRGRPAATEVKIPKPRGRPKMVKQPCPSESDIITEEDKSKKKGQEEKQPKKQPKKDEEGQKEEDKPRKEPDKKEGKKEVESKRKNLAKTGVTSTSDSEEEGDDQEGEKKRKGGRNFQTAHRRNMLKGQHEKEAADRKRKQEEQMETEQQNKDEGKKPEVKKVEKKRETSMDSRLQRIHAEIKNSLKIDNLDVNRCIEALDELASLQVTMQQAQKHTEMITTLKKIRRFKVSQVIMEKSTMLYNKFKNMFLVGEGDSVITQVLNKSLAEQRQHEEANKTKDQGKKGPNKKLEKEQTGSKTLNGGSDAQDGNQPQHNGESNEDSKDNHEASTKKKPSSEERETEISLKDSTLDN

Turning to WTAVQMAVFIHNFKRK [INS], at LEDGF/p75, the Kd was 2200 ± 700 nM. In addition, the “cell permeability (result in words)” value in data set [1] is “cell-permeable”.
